# Measurements taken from article PMC8747000, “Synthesis, Pharmacological Evaluation, and Computational Studies of Cyclic Opioid Peptidomimetics Containing β^3-Lysine” (Molecules, 2021).
# Like-named read-outs stand apart in the source and are kept apart here. Peptide text beside a SMILES is read from it.
# Assays:
# [1] = Reversed-phase HPLC retention (chromatographic behavior as indication of lipophilicity); type: physicochemical; conditions: RP-HPLC, Vydac C18 column (5 μm, 4.6 x 250 mm); A 0.1% TFA in water, B 80% acetonitrile in water with 0.1% TFA; linear gradient 0–100% B over 50 min; 1 mL/min; uncalibrated retention time
# From the text: During the routine LC-MS analysis of analogs RP-171 and RP-172, we noticed a distinct difference in retention times and MS^n patterns for these diastereoisomeric peptides. To confirm our observation, we subjected a mixture of these peptides to LC-MS and MS^n experiments. […] It is interesting that the elution order from the biphenyl column was the same as from the C18 column.
# All protected α-amino acids were purchased from Bachem A (Bubendorf, Switzerland). Opioid radioligands, [^3H]DAMGO, [^3H]deltorphin-2, and [^3H]U-69593, and human recombinant opioid receptors were purchased from PerkinElmer (Krakow, Poland). GF/B glass fiber strips were obtained from Whatman (Brentford, UK). Purity of peptides was determined by RP-HPLC and exact mass. Analytical and semi-preparative RP-HPLC was performed using Waters Breeze instrument (Milford, MA, USA) with dual absorbance detector (Waters 2487, MA, USA). […] For LC-MS experiments, Aeris Peptide C18 and Kinetex Biphenyl (Phenomenex, Torrance, CA, USA) were used, in a gradient reversed-phase mode, from 5 to 80% acetonitrile in water (both containing 0.1% HCOOH). ^1H NMR spectra were recorded on a 500 MHz Brucker instrument in DMSO-d6, using residual DMSO as a resonance reference at 2.5 ppm. […]
# KOR [2] = molecular target: T1, KOR (Homo sapiens, UniProt P41145); test: Calcium mobilization assay, CHO-KOR cells; type: cell-based; set-up: expressed in transfected cells; host or cells: CHO cells (gift from Prof. Girolamo Calo, University of Padova); conditions: for KOR α ± SEM (intrinsic activity): Emax ratio of tested compound and standard agonist dynorphin A, CHO cells co-expressing human KOR and Gαqi5
# MOR [3] = molecular target: T2, MOR (Homo sapiens, UniProt P35372); test: Opioid receptor binding assay, competitive displacement of [3H]DAMGO; set-up: purchased PerkinElmer; host or cells: CHO cells
# Method: (§1) The binding affinities of cyclopeptides RP-171 and RP-172 toward MOR, DOR, and KOR were determined by competitive binding against [^3H]DAMGO, [^3H][D-Ala^2]deltorphin-2, and U-69593, respectively, using membranes of CHO cells transfected with opioid receptors and are summarized in Table 1.
# (§2) The opioid receptor binding assays were performed according to the described method, using commercial membranes of Chinese Hamster Ovary (CHO) cells transfected with human opioid receptors. The binding affinities for MOR, DOR, and KOR were determined by radioligand competition analysis using [^3H]DAMGO, [^3H]deltorphin-2, and [^3H]U-69593, respectively, as specific radioligands, respectively. Membrane preparations were incubated at 25 °C for 120 min with appropriate concentrations of a tested peptide in the presence of 0.5 nM radioligand in a total volume of 0.5 ml of 50 mM Tris/HCl (pH 7.4) containing bovine serum albumin (BSA) (1 mg/mL), bacitracin (50 µg/mL), bestatin (30 µM), and captopril (10 µM). Non-specific binding was determined in the presence of 1 µM naloxone. Incubations were terminated by the rapid filtration through the GF/B Whatman (Brentford, UK) glass fiber strips (pre-soaked for 2 h in 0.5% (v/v) polyethylamine) using Millipore Sampling Manifold (Billerica, MA, USA). The filters were washed three times with 4 ml of ice-cold Tris buffer solution. The bound radioactivity was measured in a Packard Tri-Carb 2100 TR liquid scintillation counter (Ramsey, MN, USA) after overnight extraction of the filters in 4 mL of a Perkin Elmer Ultima Gold scintillation fluid (Wellesley, MA, USA). Three independent experiments for each assay were carried out in duplicate. The data were analyzed by a nonlinear least square regression analysis computer program Graph Pad PRISM 6.0 (Graph Pad Software Inc., San Diego, CA, USA). The IC50 values were determined from the logarithmic concentration–displacement curves, and the values of the inhibitory constants (Ki) were calculated according to the equation of Cheng and Prusoff.
# DOR [4] = molecular target: T3, DOR (Homo sapiens, UniProt P41143); test: Opioid receptor binding assay, competitive displacement of [3H]deltorphin-2; set-up: purchased PerkinElmer; host or cells: CHO cells
# Method: as §1, §2
# MOR [5] = molecular target: T2, MOR; test: Calcium mobilization assay, CHO-MOR cells; type: cell-based; set-up: expressed in transfected cells; host or cells: CHO cells (gift from Prof. Girolamo Calo, University of Padova); conditions: for MOR α ± SEM (intrinsic activity): Emax ratio of tested compound and standard agonist dermorphin, CHO cells co-expressing human MOR and Gαqi5
# KOR [6] = molecular target: T1, KOR; test: Opioid receptor binding assay, competitive displacement of [3H]U-69593; set-up: purchased PerkinElmer; host or cells: CHO cells
# Method: as §1, §2
# DOR [7] = molecular target: T3, DOR; test: Calcium mobilization assay, CHO-DOR cells; type: cell-based; set-up: expressed in transfected cells; host or cells: CHO cells (gift from Prof. Girolamo Calo, University of Padova); conditions: n ≥ 3; for DOR pEC50 (CL95%): CHO cells co-expressing human recombinant DOR and GαqG66Di5, Fluo-4 AM fluorescence, FlexStation II; for DOR α ± SEM (intrinsic activity): Emax ratio of tested compound and standard agonist DPDPE, CHO cells co-expressing human DOR and GαqG66Di5
# [8] = compared with EM-2; cited from earlier work
# From the text: Endomorphins are very short peptides lacking reactive side chain groups, which makes their cyclization difficult. […] In order to obtain cyclic analogs based on the structure of EM-2 but still to preserve the free N-terminal amino group, we introduced into the sequence of EM-2 additional amino acids with functionalized side chains. A pentapeptide analog Tyr-c[D-Lys-Phe-Phe-Asp]NH2 (designated RP-170), ...
# [9] = membranes of CHO cells transfected with human opioid receptors, 0.5 nM [3H]DAMGO, 25 °C, 120 min, 50 mM Tris/HCl pH 7.4, Cheng-Prusoff, mean ± SEM, n = 3, read-out: Ki MOR
# [10] = membranes of CHO cells transfected with human opioid receptors, 0.5 nM [3H]deltorphin-2, 25 °C, 120 min, 50 mM Tris/HCl pH 7.4, Cheng-Prusoff, mean ± SEM, n = 3, read-out: Ki DOR
# [11] = CHO cells co-expressing human recombinant MOR and Gαqi5, Fluo-4 AM fluorescence, FlexStation II, n ≥ 3, read-out: MOR pEC50 (CL95%) (converted)
Structure (SMILES),HPLC tR [1],"EC50 (KOR [2]; CHO cells co-expressing human recombinant KOR and Gαqi5, Fluo-4 AM fluorescence, FlexStation II, n ≥ 3, read-out: KOR pEC50 (CL95%) (converted))",KOR α ± SEM (intrinsic activity) (KOR [2]; n ≥ 3),"KOR α ± SEM (intrinsic activity) (KOR [2]; n ≥ 3, SEM)",Ki (MOR [3]; [9]),Ki (DOR [4]; [10]),EC50 (MOR [5]; [11]),MOR α ± SEM (intrinsic activity) (MOR [5]; n ≥ 3),"Ki (KOR [6]; membranes of CHO cells transfected with human opioid receptors, 0.5 nM [3H]U-69593, 25 °C, 120 min, 50 mM Tris/HCl pH 7.4, Cheng-Prusoff, mean ± SEM, n = 3, SEM, read-out: Ki KOR)",loss of affinity for KOR as compared with the parent RP-170 (KOR [6]; ratio of Ki values versus RP-170),DOR pEC50 (CL95%) (DOR [7]),DOR α ± SEM (intrinsic activity) (DOR [7]),"KOR pEC50 (CL95%) (KOR [2]; CHO cells co-expressing human recombinant KOR and Gαqi5, Fluo-4 AM fluorescence, FlexStation II, n ≥ 3)","Ki (KOR [6]; membranes of CHO cells transfected with human opioid receptors, 0.5 nM [3H]U-69593, 25 °C, 120 min, 50 mM Tris/HCl pH 7.4, Cheng-Prusoff, mean ± SEM, n = 3, read-out: Ki KOR)",EC50 (KOR [2]),Ki (MOR [3]; SEM),Ki (DOR [4]; SEM),EC50 (MOR [5]),Ki (KOR [6]; SEM),stability in the rat brain homogenate [8]
"NC(=O)[C@@H]1CC(=O)NCCC[C@@H](NC(=O)[C@@H](N)Cc2ccc(O)cc2)CC(=O)N[C@@H](Cc2ccccc2)C(=O)N[C@@H](Cc2ccccc2)C(=O)N1 [RP-171, Tyr-c[(R)-β^3-Lys-Phe-Phe-Asp]NH2]",14.05 min,1.02 µM,0.82,0.82 ± 0.05,0.029 ± 0.00432 µM,> 1 µM,0.135 µM,0.82 ± 0.02,0.42 ± 0.023 µM,276 fold,inactive,inactive,,,,,,,,
"NC(=O)[C@@H]1CC(=O)NCCC[C@H](NC(=O)[C@@H](N)Cc2ccc(O)cc2)CC(=O)N[C@@H](Cc2ccccc2)C(=O)N[C@@H](Cc2ccccc2)C(=O)N1 [RP-172, Tyr-c[(S)-β^3-Lys-Phe-Phe-Asp]NH2]",14.36 min,,inactive,,0.95 ± 0.045 µM,> 1 µM,3.55 µM,0.45 ± 0.02,,,inactive,inactive,inactive,> 1 µM,,,,,,
"NC(=O)[C@@H]1CC(=O)NCCCC[C@@H](NC(=O)[C@@H](N)Cc2ccc(O)cc2)C(=O)N[C@@H](Cc2ccccc2)C(=O)N[C@@H](Cc2ccccc2)C(=O)N1 [RP-170, Tyr-c[D-Lys-Phe-Phe-Asp]NH2] (HELM PEPTIDE1{Y.[dK].F.F.D.[am]}$PEPTIDE1,PEPTIDE1,2:R3-5:R3$$$V2.0)",,,,,,,,,,,inactive,inactive,,,0.00251 µM,0.00055 ± 2e-05 µM,0.198 ± 0.0045 µM,0.00117 µM,0.00152 ± 0.0002 µM,much more stable than EM-2
